In the supplement of paper PMC10307832:

Assays:
Experiment in all cases: relative viability (nuclei count vs DMSO), 5 days (fraction); higher = more cells survive
Dasatinib + Olaparib = compound: Cc1nc(Nc2ncc(C(=O)Nc3c(C)cccc3Cl)s2)cc(N2CCN(CCO)CC2)n1 [Dasatinib] + O=C(c1cc(Cc2n[nH]c(=O)c3ccccc23)ccc1F)N1CCN(C(=O)C2CC2)CC1 [Olaparib] (partner 8 µM)
Summary of the method: (§1)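 Five library-drug doses in √10 steps were combined with a fixed anchor-drug dose, or a single drug was given alone, by pin tool to lung cancer cell lines in 1536-well plates the day after seeding. Nuclei were stained and counted after 5 days. Relative viability is the nuclei count in treated wells over that in vehicle wells, taken as the median of duplicate plates.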

ALW-II-49-7 + Alpelisib = compound: Cc1ccc(C(=O)Nc2cccc(C(F)(F)F)c2)cc1Nc1cncc(C(N)=O)c1 [ALW-II-49-7] + Cc1nc(NC(=O)N2CCC[C@H]2C(N)=O)sc1-c1ccnc(C(C)(C)C(F)(F)F)c1 [Alpelisib] (partner 2 µM)
Summary of the method: as §1

Dasatinib + Bortezomib = compound: Cc1nc(Nc2ncc(C(=O)Nc3c(C)cccc3Cl)s2)cc(N2CCN(CCO)CC2)n1 [Dasatinib] + CC(C)C[C@H](NC(=O)[C@H](Cc1ccccc1)NC(=O)c1cnccn1)B(O)O [Bortezomib] (partner 0.002 µM)
Summary of the method: as §1

Dasatinib + Phenformin = compound: Cc1nc(Nc2ncc(C(=O)Nc3c(C)cccc3Cl)s2)cc(N2CCN(CCO)CC2)n1 [Dasatinib] + N=C(N)NC(=N)NCCc1ccccc1 [Phenformin] (partner 250 µM)
Summary of the method: as §1

Cell Line	relative viability (Dasatinib + Olaparib; first compound 0.005 µM)	relative viability (Dasatinib + Olaparib; first compound 0.01581 µM)	relative viability (Dasatinib + Olaparib; first compound 0.05 µM)	relative viability (Dasatinib + Olaparib; first compound 0.1581 µM)	relative viability (Dasatinib + Olaparib; first compound 0.5 µM)	relative viability (ALW-II-49-7 + Alpelisib; first compound 0.08 µM)	relative viability (ALW-II-49-7 + Alpelisib; first compound 0.253 µM)	relative viability (ALW-II-49-7 + Alpelisib; first compound 0.8 µM)	relative viability (ALW-II-49-7 + Alpelisib; first compound 2.53 µM)	relative viability (ALW-II-49-7 + Alpelisib; first compound 8 µM)	relative viability (Dasatinib + Bortezomib; first compound 0.005 µM)	relative viability (Dasatinib + Bortezomib; first compound 0.01581 µM)	relative viability (Dasatinib + Bortezomib; first compound 0.05 µM)	relative viability (Dasatinib + Bortezomib; first compound 0.1581 µM)	relative viability (Dasatinib + Bortezomib; first compound 0.5 µM)	relative viability (Dasatinib + Phenformin; first compound 0.005 µM)	relative viability (Dasatinib + Phenformin; first compound 0.01581 µM)	relative viability (Dasatinib + Phenformin; first compound 0.05 µM)	relative viability (Dasatinib + Phenformin; first compound 0.1581 µM)	relative viability (Dasatinib + Phenformin; first compound 0.5 µM)
HCC-44	1.03	0.958	1.11	1.13	0.986	0.796	0.854	0.887	0.752	0.592	0.857	0.857	0.993	0.894	0.45	0.202	0.283	0.179	0.139	0.113
HCC-78	0.596	0.649	0.639	0.577	0.243	0.275	0.309	0.351	0.325	0.337	0.419	0.381	0.463	0.385	0.225	0.436	0.581	0.581	0.465	0.245
HCC-366	0.263	0.206	0.217	0.157	0.141	0.392	0.605	0.417	0.356	0.579	0.989	0.738	0.637	0.632	0.407	0.606	0.571	0.484	0.426	0.336
HCC-827	0.595	0.577	0.535	0.209	0.106	0.949	1.08	0.945	0.94	0.897	1.08	1.03	1.07	0.981	0.48	0.411	0.362	0.328	0.293	0.104
HOP-62	0.32	0.381	0.307	0.434	0.204	1.05	1.13	1.14	0.499	0.955	0.875	0.674	0.643	0.864	0.39	0.687	0.608	0.704	0.569	0.281
IA-LM	1.06	0.537	0.904	0.706	0.6	0.768	0.523	0.653	0.321	0.112	1.14	0.882	1.03	0.766	0.615	–	–	–	–	–
LK-2	0.674	0.609	0.57	0.278	0.229	1.14	1.09	1.02	0.74	0.967	–	–	–	–	–	0.464	0.23	0.257	0.166	0.163
NCI-H358	0.464	0.431	0.427	0.303	0.139	0.718	0.802	0.925	0.965	0.902	–	–	–	–	–	0.301	0.247	0.264	0.156	0.157
NCI-H522	0.707	0.513	0.591	0.52	0.549	–	–	–	–	–	–	–	–	–	–	0.634	0.625	0.587	0.599	0.5
NCI-H1299	0.959	0.983	0.998	0.639	0.297	1.08	0.974	1.11	1.17	0.968	1.04	1.02	1.14	0.612	0.485	–	–	–	–	–
NCI-H1395	0.431	0.46	0.376	0.355	0.311	1.22	1.1	1.04	0.307	1.09	–	–	–	–	–	0.398	0.435	0.369	0.305	0.304
NCI-H1563	–	–	–	–	–	0.946	0.941	1.01	0.977	0.976	0.703	0.607	0.632	0.647	0.562	0.67	0.573	0.595	0.636	0.517
NCI-H1623	–	–	–	–	–	–	–	–	–	–	–	–	–	–	–	0.568	0.564	0.526	0.413	0.349
NCI-H1648	0.73	0.612	0.855	0.314	0.221	–	–	–	–	–	–	–	–	–	–	–	–	–	–	–
NCI-H1650	0.741	0.614	0.571	0.442	0.282	–	–	–	–	–	0.227	0.195	0.193	0.217	0.2	0.401	0.302	0.319	0.217	0.178
NCI-H1703	0.287	0.25	0.144	0.147	0.148	0.331	0.322	0.258	0.297	0.182	0.285	0.22	0.247	0.18	0.121	–	–	–	–	–
NCI-H1793	0.69	0.404	0.385	0.367	0.521	0.717	0.673	0.752	0.716	0.884	–	–	–	–	–	0.319	0.314	0.313	0.264	0.2
NCI-H1944	0.415	0.298	0.332	0.191	0.135	0.817	0.836	0.807	0.916	0.941	–	–	–	–	–	0.185	0.149	0.15	0.154	0.123
NCI-H2170	0.585	0.572	0.525	0.427	0.263	0.723	0.762	0.751	0.867	0.793	–	–	–	–	–	0.426	0.379	0.357	0.294	0.177
NCI-H2342	0.564	0.397	0.364	0.274	0.285	–	–	–	–	–	–	–	–	–	–	0.626	0.482	0.556	0.356	0.304
SK-MES-1	0.766	0.794	0.56	0.214	0.151	0.852	0.802	0.891	0.779	0.753	–	–	–	–	–	0.721	0.681	0.669	0.361	0.171
SW 900	0.65	0.436	0.395	0.324	0.336	–	–	–	–	–	–	–	–	–	–	0.489	0.568	0.53	0.466	0.294
